Legend:
[1] = molecular target: T1, MLKL (Homo sapiens, UniProt Q8NB16); assay: MLKL degradation assay in HepG2 cell line (western blot); format: cell-based; set-up: endogenous in cells; host or cells: HepG2 or HaCaT; conditions: cell line not given; for Degradation assay (Degradation %) 10 μM: compound 10 μM; for Degradation assay (Degradation %) 1 μM: compound 1 μM
T1 sequence (Q8NB16 1-471): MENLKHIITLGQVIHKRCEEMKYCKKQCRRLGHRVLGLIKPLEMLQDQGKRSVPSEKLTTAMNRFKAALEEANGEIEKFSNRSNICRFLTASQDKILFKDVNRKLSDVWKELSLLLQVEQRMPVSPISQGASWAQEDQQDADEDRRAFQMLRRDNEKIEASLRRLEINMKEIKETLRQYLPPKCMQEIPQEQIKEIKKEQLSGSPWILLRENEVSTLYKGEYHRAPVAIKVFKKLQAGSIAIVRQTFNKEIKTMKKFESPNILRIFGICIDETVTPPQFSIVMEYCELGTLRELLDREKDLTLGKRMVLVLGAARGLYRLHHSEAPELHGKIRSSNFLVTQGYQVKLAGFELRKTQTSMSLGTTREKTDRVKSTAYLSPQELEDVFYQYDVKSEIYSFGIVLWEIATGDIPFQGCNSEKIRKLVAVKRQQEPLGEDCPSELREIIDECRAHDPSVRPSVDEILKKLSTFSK
Outline: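 Western blot chemiluminescence of MLKL in equal-protein lysates (10-15 μg, BCA-adjusted). Before lysis, HepG2 cells were exposed to 1 or 10 μM (final) test compound for 20-24 h at 37 °C.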

[2] = molecular target: T1, MLKL; assay: Measurement of binding affinity with MLKL receptor (competitive binding assay, Kd); set-up: made in house; host or cells: HEK 293 cell line (T7 phage in E. coli BL21-derived host is also described)
Outline: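 qPCR of MLKL eluted from liganded beads served as the read-out, from which Kd was derived. The protein was made in HEK 293 cells with a DNA tag, and test compounds competed with the bead-bound ligand at 0.9% final DMSO.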

[3] = tested on: FADD−/− Jurkat cells; assay: Necroptosis inhibition assay, TNF-α-induced necroptosis (CellTiter-Glo 2.0); format: cell-based, human; conditions: TNF-α 15 ng/mL; for Necroptosis inhibition assay (Rescue %) 1 μM: compound 1 μM; for Necroptosis inhibition assay (Rescue %) 10 μM: compound 10 μM
Outline: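 Necroptosis induced by 15 ng/mL TNF-α (final) for 20–24 h at 37 °C, after a 30 min room-temperature pretreatment of FADD-deficient Jurkat cells with 0.1, 1 or 10 μM compound. ATP-based luminescence gave viability, from which inhibition rate and cytotoxicity were derived.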

| SMILES | Degradation assay (Degradation %) 10 μM [1] | Kd [2] | Necroptosis inhibition assay (Rescue %) 1 μM [3] | Necroptosis inhibition assay (Rescue %) 10 μM [3] | Degradation assay (Degradation %) 1 μM [1] |
| --- | --- | --- | --- | --- | --- |
| Nc1ncc(-c2cnn(C3CCN(CCCCCCCCCCNC(=O)C4CN(c5ccc6c(c5)C(=O)N(C5CCC(=O)NC5=O)C6=O)C4)CC3)c2)nc1C(=O)O[C@@H](C(=O)Nc1ccc(F)cc1)c1ccccc1 (stereo partly drawn) [TDH-159, (R)-2-((4-fluorophenyl)amino)-2-oxo-1-phenylethyl 3-amino-6-(1-(1-(10-(1-(2-(2,6-dioxopiperidin-3-yl)-1,3-dioxoisoindolin-5-yl)azetidine-3-carboxamido)decyl)piperidin-4-yl)-1H-pyrazol-4-yl)pyrazine-2-carboxylate] | 29.21% | 18 nM | 33.57% | 34.1% | – |
| Nc1ncc(-c2cnn(C3CCN(CCCCCCCCCCNC(=O)COc4ccc5c(c4)C(=O)N(C4CCC(=O)NC4=O)C5=O)CC3)c2)nc1C(=O)O[C@@H](C(=O)Nc1ccc(F)cc1)c1ccccc1 (stereo partly drawn) [TDH-164, (R)-2-((4-fluorophenyl)amino)-2-oxo-1-phenylethyl 3-amino-6-(1-(1-(10-(2-((2-(2,6-dioxopiperidin-3-yl)-1,3-dioxoisoindolin-5-yl)oxy)acetamido)decyl)piperidin-4-yl)-1H-pyrazol-4-yl)pyrazine-2-carboxylate] | 46.68% | 20 nM | 27.84% | 10.5% | 55.2% |
| Nc1ncc(-c2cnn(C3CCN(CCCCCCNC(=O)COc4ccc5c(c4)C(=O)N(C4CCC(=O)NC4=O)C5=O)CC3)c2)nc1C(=O)O[C@@H](C(=O)Nc1ccc(F)cc1)c1ccccc1 (stereo partly drawn) [TDH-165, (R)-2-((4-fluorophenyl)amino)-2-oxo-1-phenylethyl 3-amino-6-(1-(1-(6-(2-((2-(2,6-dioxopiperidin-3-yl)-1,3-dioxoisoindolin-5-yl)oxy)acetamido)hexyl)piperidin-4-yl)-1H-pyrazol-4-yl)pyrazine-2-carboxylate] | 61.44% | 0.9 nM | 52.37% | 4.66% | 62.49% |
| Nc1ncc(-c2cnn(C3CCN(CCOCCOCCOCCNC(=O)COc4ccc5c(c4)C(=O)N(C4CCC(=O)NC4=O)C5=O)CC3)c2)nc1C(=O)O[C@@H](C(=O)Nc1ccc(F)cc1)c1ccccc1 (stereo partly drawn) [TDH-166, (R)-2-((4-fluorophenyl)amino)-2-oxo-1-phenylethyl 3-amino-6-(1-(1-(1-((2-(2,6-dioxopiperidin-3-yl)-1,3-dioxoisoindolin-5-yl)oxy)-2-oxo-6,9,12-trioxa-3-azatetradecan-14-yl)piperidin-4-yl)-1H-pyrazol-4-yl)pyrazine-2-carboxylate] | 60.05% | 3.4 nM | 27.44% | 65.57% | 18.17% |
| Nc1ncc(-c2cnn(C3CCN(CCOCCOCCNC(=O)COc4ccc5c(c4)C(=O)N(C4CCC(=O)NC4=O)C5=O)CC3)c2)nc1C(=O)O[C@@H](C(=O)Nc1ccc(F)cc1)c1ccccc1 (stereo partly drawn) [TDH-167, (R)-2-((4-fluorophenyl)amino)-2-oxo-1-phenylethyl 3-amino-6-(1-(1-(2-(2-(2-(2-((2-(2,6-dioxopiperidin-3-yl)-1,3-dioxoisoindolin-5-yl)oxy)acetamido)ethoxy)ethoxy)ethyl)piperidin-4-yl)-1H-pyrazol-4-yl)pyrazine-2-carboxylate] | 60.91% | 1.7 nM | 45.5% | 38.58% | 36.7% |
| Nc1ncc(-c2cnn(C3CCN(CCOCCNC(=O)COc4ccc5c(c4)C(=O)N(C4CCC(=O)NC4=O)C5=O)CC3)c2)nc1C(=O)O[C@@H](C(=O)Nc1ccc(F)cc1)c1ccccc1 (stereo partly drawn) [TDH-168, (R)-2-((4-fluorophenyl)amino)-2-oxo-1-phenylethyl 3-amino-6-(1-(1-(2-(2-(2-((2-(2,6-dioxopiperidin-3-yl)-1,3-dioxoisoindolin-5-yl)oxy)acetamido)ethoxy)ethyl)piperidin-4-yl)-1H-pyrazol-4-yl)pyrazine-2-carboxylate] | 24.52% | 7.1 nM | 31.24% | 40.55% | – |
| Nc1ncc(-c2cnn(C3CCN(CC4CCN(C(=O)COc5ccc6nnn(C7CCC(=O)NC7=O)c(=O)c6c5)CC4)CC3)c2)nc1C(=O)O[C@@H](C(=O)Nc1ccc(F)cc1)c1ccccc1 (stereo partly drawn) [TDH-169, (R)-2-((4-fluorophenyl)amino)-2-oxo-1-phenylethyl 3-amino-6-(1-(1-((1-(2-((3-(2,6-dioxopiperidin-3-yl)-4-oxo-3,4-dihydrobenzo[d][1,2,3]triazin-6-yl)oxy)acetyl)piperidin-4-yl)methyl)piperidin-4-yl)-1H-pyrazol-4-yl)pyrazine-2-carboxylate] | 58.09% | 2 nM | 68.09% | 50.74% | 71.77% |
| Nc1ncc(-c2cnn(C3CCN(CC4CCN(C(=O)C5CN(c6ccc7nnn(C8CCC(=O)NC8=O)c(=O)c7c6)C5)CC4)CC3)c2)nc1C(=O)O[C@@H](C(=O)Nc1ccc(F)cc1)c1ccccc1 (stereo partly drawn) [TDH-170, (R)-2-((4-fluorophenyl)amino)-2-oxo-1-phenylethyl 3-amino-6-(1-(1-((1-(1-(3-(2,6-dioxopiperidin-3-yl)-4-oxo-3,4-dihydrobenzo[d][1,2,3]triazin-6-yl)azetidine-3-carbonyl)piperidin-4-yl)methyl)piperidin-4-yl)-1H-pyrazol-4-yl)pyrazine-2-carboxylate] | 58.27% | 4.6 nM | 44.08% | 23.26% | 60.57% |
| Nc1ncc(-c2cnn(C3CCN(CC4CCN(C(=O)COc5ccc6c(c5)C(=O)N(C5CCC(=O)NC5=O)C6=O)CC4)CC3)c2)nc1C(=O)O[C@@H](C(=O)Nc1ccc(F)cc1)c1ccccc1 (stereo partly drawn) [TDH-171, (R)-2-((4-fluorophenyl)amino)-2-oxo-1-phenylethyl 3-amino-6-(1-(1-((1-(2-((2-(2,6-dioxopiperidin-3-yl)-1,3-dioxoisoindolin-5-yl)oxy)acetyl)piperidin-4-yl)methyl)piperidin-4-yl)-1H-pyrazol-4-yl)pyrazine-2-carboxylate] | 64.5% | 2.3 nM | 93.81% | 65.91% | 64.64% |
| Nc1ncc(-c2cnn(C3CCN(CC4CCN(c5ccc6nnn(C7CCC(=O)NC7=O)c(=O)c6c5)CC4)CC3)c2)nc1C(=O)O[C@@H](C(=O)Nc1ccc(F)cc1)c1ccccc1 (stereo partly drawn) [TDH-172, (R)-2-((4-fluorophenyl)amino)-2-oxo-1-phenylethyl 3-amino-6-(1-(1-((1-(3-(2,6-dioxopiperidin-3-yl)-4-oxo-3,4-dihydrobenzo[d][1,2,3]triazin-6-yl)piperidin-4-yl)methyl)piperidin-4-yl)-1H-pyrazol-4-yl)pyrazine-2-carboxylate] | 57.1% | 26 nM | 85.53% | 74.34% | 59.24% |
